Tests used:
Carbonic anhydrase 9 = Carbonic anhydrase 9 (Homo sapiens, UniProt Q16790); assay: Inhibition of recombinant human carbonic anhydrase 9 by stopped flow CO2 hydrase assay
Carbonic anhydrase 1 = Carbonic anhydrase 1 (Homo sapiens, UniProt P00915); assay: Inhibition of recombinant human carbonic anhydrase 1 by stopped flow CO2 hydrase assay
Carbonic anhydrase 2 = Carbonic anhydrase 2 (Homo sapiens, UniProt P00918); assay: Inhibition of recombinant human carbonic anhydrase 2 by stopped flow CO2 hydrase assay
Carbonic anhydrase 13 = Carbonic anhydrase 13 (Homo sapiens, UniProt Q8N1Q1); assay: Inhibition of recombinant human carbonic anhydrase 13 by stopped flow CO2 hydrase assay
Chain of Carbonic anhydrase 13 (Q8N1Q1 whole entry): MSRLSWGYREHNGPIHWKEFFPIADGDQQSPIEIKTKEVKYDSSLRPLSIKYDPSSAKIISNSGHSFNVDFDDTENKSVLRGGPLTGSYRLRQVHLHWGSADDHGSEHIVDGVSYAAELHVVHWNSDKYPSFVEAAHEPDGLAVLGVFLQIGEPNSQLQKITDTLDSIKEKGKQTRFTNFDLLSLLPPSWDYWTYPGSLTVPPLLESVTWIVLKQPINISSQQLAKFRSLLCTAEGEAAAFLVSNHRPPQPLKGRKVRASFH

Chain of Carbonic anhydrase 1 (P00915 whole entry): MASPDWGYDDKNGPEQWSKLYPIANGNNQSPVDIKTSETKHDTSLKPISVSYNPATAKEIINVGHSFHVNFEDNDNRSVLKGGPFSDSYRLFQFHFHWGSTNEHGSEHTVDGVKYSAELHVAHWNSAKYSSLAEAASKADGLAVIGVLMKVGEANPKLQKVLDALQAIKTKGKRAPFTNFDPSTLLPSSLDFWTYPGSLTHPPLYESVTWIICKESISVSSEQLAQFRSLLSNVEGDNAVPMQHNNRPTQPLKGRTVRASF

Row | Ki (Carbonic anhydrase 9) | Ki (Carbonic anhydrase 1) | Ki (Carbonic anhydrase 2) | Ki (Carbonic anhydrase 13) | SMILES
1 | 0.0545 µM | – | – | – | NS(=O)(=O)c1cccc(-c2nnc(-c3ccc(Cl)cc3)o2)c1
2 | > 10 µM | > 10 µM | > 10 µM | > 10 µM | Cc1ccc(-c2nnc(-c3ccccc3)o2)cc1S(N)(=O)=O
3 | > 10 µM | > 10 µM | > 10 µM | > 10 µM | COc1ccc(-c2nnc(-c3ccc(C)c(S(N)(=O)=O)c3)o2)c(OC)c1
4 | > 10 µM | > 10 µM | > 10 µM | > 10 µM | COc1ccc(-c2nnc(-c3ccccc3)o2)cc1S(N)(=O)=O
5 | > 10 µM | > 10 µM | > 10 µM | > 10 µM | Cc1ccc(-c2nnc(-c3ccc(Cl)cc3Cl)o2)cc1S(N)(=O)=O
6 | 0.0683 µM | – | – | – | COc1cc(-c2nnc(-c3cccc(S(N)(=O)=O)c3)o2)cc(OC)c1OC
7 | 0.0768 µM | – | – | – | COc1ccc(OC)c(-c2nnc(-c3cccc(S(N)(=O)=O)c3)o2)c1
8 | > 10 µM | > 10 µM | > 10 µM | > 10 µM | Cc1ccc(-c2nnc(-c3ccc(C#N)cc3)o2)cc1S(N)(=O)=O
9 | 0.0763 µM | – | – | – | NS(=O)(=O)c1cccc(-c2nnc(-c3ccc(Cl)cc3Cl)o2)c1
10 | 0.0763 µM | – | – | – | N#Cc1ccc(-c2nnc(-c3cccc(S(N)(=O)=O)c3)o2)cc1
11 | 0.108 µM | – | – | – | NS(=O)(=O)c1cccc(-c2nnc(-c3ccccc3)o2)c1
12 | > 10 µM | > 10 µM | > 10 µM | > 10 µM | COc1ccc(-c2nnc(-c3cccc([N+](=O)[O-])c3)o2)cc1S(N)(=O)=O
13 | > 10 µM | > 10 µM | > 10 µM | > 10 µM | Cc1ccc(-c2nnc(-c3ccc(Cl)cc3)o2)cc1S(N)(=O)=O
14 | 0.044 µM | – | – | – | NS(=O)(=O)c1cccc(-c2nnc(-c3cccc([N+](=O)[O-])c3)o2)c1
15 | > 10 µM | > 10 µM | > 10 µM | > 10 µM | Cc1ccc(-c2nnc(-c3cccc([N+](=O)[O-])c3)o2)cc1S(N)(=O)=O
16 | 0.0571 µM | – | – | – | NS(=O)(=O)c1cccc(-c2nnc(-c3ccc([N+](=O)[O-])cc3)o2)c1
17 | 0.0853 µM | – | – | – | NS(=O)(=O)c1cccc(-c2nnc(-c3cccs3)o2)c1
18 | > 10 µM | > 10 µM | > 10 µM | > 10 µM | COc1ccc(-c2nnc(-c3ccc(OC)c(S(N)(=O)=O)c3)o2)c(OC)c1
19 | 0.0822 µM | – | – | – | COc1ccc(-c2nnc(-c3cccc(S(N)(=O)=O)c3)o2)c(OC)c1

From ChEMBL document CHEMBL4706696, “3-Functionalised benzenesulphonamide based 1,3,4-oxadiazoles as selective carbonic anhydrase XIII inhibitors: Design, synthesis and biological evaluation” (Bioorg Med Chem Lett, 2021)
